# According to article PMC9501633, “Synthesis, Characterisation and Mechanism of Action of Anticancer 3-Fluoroazetidin-2-ones” (Pharmaceuticals, 2022):
# How the values were obtained:
# Type in all cases: cell-based, human
# [1] = test system: CCRF-CEM; assay: NCI 60 cell line screen, Leukaemia; conditions: one dose 10 µM
# [2] = test system: EKVX; assay: NCI 60 cell line screen, NSCLung; conditions: one dose 10 µM
# [3] = test system: HOP-62; assay: NCI 60 cell line screen, NSCLung; conditions: one dose 10 µM
# [4] = test system: HOP-92; assay: NCI 60 cell line screen, NSCLung; conditions: one dose 10 µM
# [5] = test system: NCI-H226; assay: NCI 60 cell line screen, NSCLung; conditions: one dose 10 µM
# [6] = test system: NCI-H322M; assay: NCI 60 cell line screen, NSCLung; conditions: one dose 10 µM
# [7] = test system: NCI-H460; assay: NCI 60 cell line screen, NSCLung; conditions: one dose 10 µM
# [8] = test system: COLO 205; assay: NCI 60 cell line screen, Colon; conditions: one dose 10 µM
# [9] = test system: HCC-2998; assay: NCI 60 cell line screen, Colon; conditions: one dose 10 µM
# [10] = test system: HCT-116; assay: NCI 60 cell line screen, Colon; conditions: one dose 10 µM
# [11] = test system: HT29; assay: NCI 60 cell line screen, Colon
# [12] = test system: SW-620; assay: NCI 60 cell line screen, Colon; conditions: one dose 10 µM
# [13] = test system: SF-295; assay: NCI 60 cell line screen, CNS; conditions: one dose 10 µM
# [14] = test system: SNB-75; assay: NCI 60 cell line screen, CNS; conditions: one dose 10 µM
# [15] = test system: U251; assay: NCI 60 cell line screen, CNS
# [16] = test system: LOX IMVI; assay: NCI 60 cell line screen, Melanoma; conditions: one dose 10 µM
# [17] = test system: MDA-MB-435; assay: NCI 60 cell line screen, Melanoma; conditions: one dose 10 µM
# [18] = test system: SK-MEL-2; assay: NCI 60 cell line screen, Melanoma; conditions: one dose 10 µM
# [19] = test system: SK-MEL-28; assay: NCI 60 cell line screen, Melanoma; conditions: one dose 10 µM
# [20] = test system: SK-MEL-5; assay: NCI 60 cell line screen, Melanoma; conditions: one dose 10 µM
# [21] = test system: OVCAR-4; assay: NCI 60 cell line screen, Ovarian; conditions: one dose 10 µM
# [22] = test system: RXF 393; assay: NCI 60 cell line screen, Renal; conditions: one dose 10 µM
# [23] = test system: TK-10; assay: NCI 60 cell line screen, Renal; conditions: one dose 10 µM
# [24] = test system: DU-145; assay: NCI 60 cell line screen, Prostate; conditions: one dose 10 µM
# [25] = test system: MDA-MB-231/ATCC; assay: NCI 60 cell line screen, Breast; conditions: one dose 10 µM
structure (smiles),measurement,setting,value
"CCOc1ccc(C2N(c3cc(OC)c(OC)c(OC)c3)C(=O)C2(F)F)cc1 (centres unmarked) [Compound 37, 4-(4-Ethoxyphenyl)-3,3-difluoro-1-(3,4,5-trimethoxyphenyl)azetidin-2-one]",inhibition at 10 µM,[1]; Homo sapiens,89.8%
same,Growth %,[1],10.2%
same,inhibition at 10 µM,[2]; Homo sapiens,24.7%
same,Growth %,[2],75.34%
same,inhibition at 10 µM,[3]; Homo sapiens,59.2%
same,Growth %,[3],40.81%
same,inhibition at 10 µM,[4]; Homo sapiens,44.4%
same,Growth %,[4],55.62%
same,inhibition at 10 µM,[5]; Homo sapiens,29%
same,Growth %,[5],71.01%
same,inhibition at 10 µM,[6]; Homo sapiens,32.8%
same,Growth %,[6],67.23%
same,inhibition at 10 µM,[7]; Homo sapiens,87.3%
same,Growth %,[7],12.73%
same,inhibition at 10 µM,[8]; Homo sapiens,89.2%
same,Growth %,[8],10.78%
same,inhibition at 10 µM,[9]; Homo sapiens,18.3%
same,Growth %,[9],81.66%
same,inhibition at 10 µM,[10]; Homo sapiens,91.1%
same,Growth %,[10],8.92%
same,inhibition at 10 µM,"[11]; Homo sapiens, HT-29, one dose 10 µM",87.7%
same,Growth %,[11]; one dose 10 µM,12.27%
same,inhibition at 10 µM,[12]; Homo sapiens,74.5%
same,Growth %,[12],25.47%
same,inhibition at 10 µM,[13]; Homo sapiens,43.7%
same,Growth %,[13],56.32%
same,inhibition at 10 µM,[14]; Homo sapiens,44.1%
same,Growth %,[14],55.93%
same,inhibition at 10 µM,"[15]; Homo sapiens, U-251, one dose 10 µM",63.8%
same,Growth %,[15]; one dose 10 µM,36.19%
same,inhibition at 10 µM,[16]; Homo sapiens,72.4%
same,Growth %,[16],27.57%
same,inhibition at 10 µM,[17]; Homo sapiens,83.2%
same,Growth %,[17],16.83%
same,inhibition at 10 µM,[18]; Homo sapiens,8.22%
same,Growth %,[18],91.78%
same,inhibition at 10 µM,[19]; Homo sapiens,33.2%
same,Growth %,[19],66.8%
same,inhibition at 10 µM,[20]; Homo sapiens,93.2%
same,Growth %,[20],6.76%
same,inhibition at 10 µM,[21]; Homo sapiens,50.4%
same,Growth %,[21],49.59%
same,inhibition at 10 µM,[22]; Homo sapiens,45.8%
same,Growth %,[22],54.19%
same,inhibition at 10 µM,[23]; Homo sapiens,-3.32%
same,Growth %,[23],103.32%
same,inhibition at 10 µM,[24]; Homo sapiens,70%
same,Growth %,[24],30.05%
same,inhibition at 10 µM,[25]; Homo sapiens,53.9%
same,Growth %,[25],46.12%
